Measurements: patent publication US20240391931A1 (Bristol-Myers Squibb Company, priority 2021, published 2024)

Biological target: HER2YVMA (Homo sapiens, UniProt P04626, INS775YVMA)
Test: HER2 signaling (pHER2) in Hek293-HER2YVMA cells
Assay type: cell-based
Set-up: expressed in transfected cells; host or cells: HEK293 (pool), Ba/F3 (clones), BEAS2B (clones); lentiviral vector pCDH-CMV-MCS-EF1-Neo
Settings: 1.5 hr compound, 1% FBS, read-out: HEKYVMA pHER2 EC50
How it was run: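 Lentivirally transduced HER2YVMA lines (HEK293 pool; BEAS2B clone) treated 1.5 h at 37 °C in 1% FBS medium with compound at 0.0005–1.1 μM. Lysates read by MSD immunoassay for pHER2 (Tyr1248) normalized to total HER2, as % DMSO control; EC50 from variable-slope sigmoidal fit.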

Sequence of HER2YVMA (P04626 with tags, fused parts or gaps INS775YVMA): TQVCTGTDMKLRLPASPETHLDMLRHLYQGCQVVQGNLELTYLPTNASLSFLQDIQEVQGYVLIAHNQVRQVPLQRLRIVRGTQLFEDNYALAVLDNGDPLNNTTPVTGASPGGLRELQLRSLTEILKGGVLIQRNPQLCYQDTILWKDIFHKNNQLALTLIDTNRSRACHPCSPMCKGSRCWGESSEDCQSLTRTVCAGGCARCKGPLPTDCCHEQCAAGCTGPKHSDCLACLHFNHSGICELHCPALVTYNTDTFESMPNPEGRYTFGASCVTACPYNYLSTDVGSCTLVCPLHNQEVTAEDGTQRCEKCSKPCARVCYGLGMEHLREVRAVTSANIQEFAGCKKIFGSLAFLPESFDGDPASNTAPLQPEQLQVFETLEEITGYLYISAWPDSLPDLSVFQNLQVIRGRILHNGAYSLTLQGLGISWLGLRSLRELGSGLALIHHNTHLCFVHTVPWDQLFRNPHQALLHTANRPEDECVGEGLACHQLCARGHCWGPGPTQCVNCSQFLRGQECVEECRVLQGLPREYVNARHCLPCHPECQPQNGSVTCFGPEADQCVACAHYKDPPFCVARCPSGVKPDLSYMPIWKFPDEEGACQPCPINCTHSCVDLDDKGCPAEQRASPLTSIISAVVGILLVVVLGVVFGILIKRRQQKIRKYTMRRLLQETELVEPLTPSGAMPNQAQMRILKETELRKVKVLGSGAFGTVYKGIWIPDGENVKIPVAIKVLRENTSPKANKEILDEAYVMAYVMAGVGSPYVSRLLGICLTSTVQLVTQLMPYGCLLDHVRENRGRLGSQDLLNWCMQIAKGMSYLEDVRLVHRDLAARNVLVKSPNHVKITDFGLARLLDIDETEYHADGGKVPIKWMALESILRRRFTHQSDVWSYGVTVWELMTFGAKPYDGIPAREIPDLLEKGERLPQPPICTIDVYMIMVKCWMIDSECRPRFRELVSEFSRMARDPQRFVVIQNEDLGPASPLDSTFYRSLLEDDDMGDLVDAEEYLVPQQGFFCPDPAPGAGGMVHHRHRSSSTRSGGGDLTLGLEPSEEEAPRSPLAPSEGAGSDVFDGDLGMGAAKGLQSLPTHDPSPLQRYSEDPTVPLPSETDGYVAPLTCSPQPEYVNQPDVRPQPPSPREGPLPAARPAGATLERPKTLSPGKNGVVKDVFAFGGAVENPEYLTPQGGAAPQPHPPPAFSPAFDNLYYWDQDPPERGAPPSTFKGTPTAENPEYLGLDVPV

SMILES | EC50 [µM]
Cc1ccc(Oc2ccc(Nc3ncnc4sc5c(c34)C(C)CN(C(=O)C=CCN(C)C)C5)cc2C)cn1 (single isomer, unassigned) [Compound 105] | < 0.1
Cc1ccc(Oc2ccc(Nc3ncnc4sc5c(c34)C(C)CN(C(=O)C=CCN(C)C)C5)cc2C)cn1 (single isomer, unassigned) [Compound 106] | < 0.1
Cc1cc(Nc2ncnc3sc4c(c23)CCN(C(=O)/C=C/CN(C)C)C4)ccc1Oc1ccc2ncnn2c1 [Compound 3, (E)-1-(4-((4-([1,2,4]triazolo[1,5-a]pyridin-6-yloxy)-3-methylphenyl)amino)-5,8-dihydropyrido[4′,3′:4,5]thieno[2,3-d]pyrimidin-7(6H)-yl)-4-(dimethylamino)but-2-en-1-one] | 0.1 to 0.35
C=CC(=O)N1CCc2c(sc3ncnc(Nc4ccc(Oc5ccc6ncnn6c5)c(Cl)c4)c23)C1 [Compound 4, 1-(4-((4-([1,2,4]triazolo[1,5-a]pyridin-6-yloxy)-3-chlorophenyl)amino)-5,8-dihydropyrido[4′,3′:4,5]thieno[2,3-d]pyrimidin-7(6H)-yl)prop-2-en-1-one] | < 0.1
CN(C)C/C=C/C(=O)N1CCc2c(sc3ncnc(Nc4ccc(Oc5ccc6ncnn6c5)c(Cl)c4)c23)C1 [Compound 5, (E)-1-(4-((4-([1,2,4]triazolo[1,5-a]pyridin-6-yloxy)-3-chlorophenyl)amino)-5,8-dihydropyrido[4′,3′:4,5]thieno[2,3-d]pyrimidin-7(6H)-yl)-4-(dimethylamino)but-2-en-1-one] | < 0.1
Cc1cc(Nc2ncnc3sc4c(c23)CCN(C(=O)/C=C/CN2CC3CCC(C3)C2)C4)ccc1Oc1ccc2ncnn2c1 [Compound 20] | < 0.1
Cc1ncc(Oc2ccc(Nc3ncnc4sc5c(c34)CCN(C(=O)/C=C/CN(C)C)C5)cc2C)cn1 [Compound 21, (E)-4-(dimethylamino)-1-(4-((3-methyl-4-((2-methylpyrimidin-5-yl)oxy)phenyl)amino)-5,8-dihydropyrido[4′,3′:4,5]thieno[2,3-d]pyrimidin-7(6H)-yl)but-2-en-1-one] | < 0.1
Cc1cc(Nc2ncnc3sc4c(c23)CCN(C(=O)/C=C/CN(C)C)C4)ccc1Oc1ccc2[nH]ncc2c1 [Compound 22, (E)-1-(4-((4-((1H-indazol-5-yl)oxy)-3-methylphenyl)amino)-5,8-dihydropyrido[4′,3′:4,5]thieno[2,3-d]pyrimidin-7(6H)-yl)-4-(dimethylamino)but-2-en-1-one] | < 0.1
Cc1cc(Nc2ncnc3sc4c(c23)CCN(C(=O)/C=C/CN(C)C)C4)ccc1Oc1ccc2cn[nH]c2c1 [Compound 23, (E)-1-(4-((4-((1H-indazol-6-yl)oxy)-3-methylphenyl)amino)-5,8-dihydropyrido[4′,3′:4,5]thieno[2,3-d]pyrimidin-7(6H)-yl)-4-(dimethylamino)but-2-en-1-one] | < 0.1
Cc1ccc(Oc2ccc(Nc3ncnc4sc5c(c34)CCN(C(=O)/C=C/CN3CC4CC3CO4)C5)cc2C)cn1 (centres unmarked) [Compound 26] | < 0.1
Cc1ccc(Oc2ccc(Nc3ncnc4sc5c(c34)CCN(C(=O)/C=C/CN(C)C(C)(C)C)C5)cc2C)cn1 [Compound 33] | < 0.1
Cc1ccc(Oc2ccc(Nc3ncnc4sc5c(c34)CCN(C(=O)/C=C/CN3CC4C(CO)C4C3)C5)cc2C)cn1 (centres unmarked) [Compound 34] | < 0.1
Cc1ccc(Oc2ccc(Nc3ncnc4sc5c(c34)CCN(C(=O)/C=C/CN(CCO)CCO)C5)cc2C)cn1 [Compound 37] | 0.1 to 0.35
Cc1ccc(Oc2ccc(Nc3ncnc4sc5c(c34)CCN(C(=O)/C=C/CNC3COC3)C5)cc2C)cn1 [Compound 38] | < 0.1
CNC(=O)CNC/C=C/C(=O)N1CCc2c(sc3ncnc(Nc4ccc(Oc5ccc(C)nc5)c(C)c4)c23)C1 [Compound 39] | 0.1 to 0.35
Cc1ccc(Oc2ccc(Nc3ncnc4sc5c(c34)CCN(C(=O)/C=C/CNC3CC3)C5)cc2C)cn1 [Compound 40] | < 0.1
Cc1ccc(Oc2ccc(Nc3ncnc4sc5c(c34)CCN(C(=O)/C=C/CN3CCCC3C(N)=O)C5)cc2C)cn1 (centres unmarked) [Compound 41] | < 0.1
